ChEMBL document CHEMBL1201862, “PubChem BioAssay data set” (2004)
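96-well plates; 48 h exposure; 5 concentrations. Endpoints by linear interpolation between flanking doses. Not reached: highest tested concentration assigned. GI50 = concentration required for 50% inhibition of growth.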 The source made the active and inactive calls. Rule as the data show it: active = GI50 up to about 1.1 µM and inactive = higher.

Key:
Experiment in all cases: NCI anticancer screen, dose series, 48 h
CCRF-CEM = tested on: CCRF-CEM
DMS-114 = tested on: DMS-114
HCT-116 = tested on: HCT-116
HCT-15 = tested on: HCT-15
HT-29 = tested on: HT-29
KM-20L2 = tested on: KM-20L2
M19-MEL = tested on: M19-MEL
NCI-H226 = tested on: NCI-H226
OVCAR-3 = tested on: OVCAR-3
OVCAR-4 = tested on: OVCAR-4
OVCAR-5 = tested on: OVCAR-5
RPMI-8226 = tested on: RPMI-8226
SK-OV-3 = tested on: SK-OV-3
SW-620 = tested on: SW-620
UACC-257 = tested on: UACC-257
EKVX = tested on: EKVX

| Structure (SMILES) | GI50 (CCRF-CEM) | GI50 (DMS-114) | GI50 (HCT-116) | GI50 (HCT-15) [µM] | GI50 (HT-29) | GI50 (KM-20L2) | GI50 (M19-MEL) | GI50 (NCI-H226) | GI50 (OVCAR-3) | GI50 (OVCAR-4) | GI50 (OVCAR-5) | GI50 (RPMI-8226) | GI50 (SK-OV-3) | GI50 (SW-620) | GI50 (UACC-257) | GI50 (EKVX) |
| --- | --- | --- | --- | --- | --- | --- | --- | --- | --- | --- | --- | --- | --- | --- | --- | --- |
| O=C(O)CCc1cccc2c1oc1c(CCC(=O)O)cccc12 | > 100 µM (inactive) | > 100 µM (inactive) | > 100 µM (inactive) | > 100 | > 100 µM (inactive) | > 100 µM (inactive) | > 100 µM (inactive) | > 100 µM (inactive) | > 100 µM (inactive) | > 100 µM (inactive) | > 100 µM (inactive) | > 100 µM (inactive) | > 100 µM (inactive) | > 100 µM (inactive) | > 100 µM (inactive) | – |
| CCC(COC(=O)CC[C@@H](NC(=O)C(C)NC(=O)C(C)OC1C(O)C(CO)OC(OCc2ccccc2)C1NC(C)=O)C(N)=O)NC1c2ccccc2Nc2cccc([N+](=O)[O-])c21 (stereo partly specified) | > 100 µM (inactive) | > 100 µM (inactive) | > 100 µM (inactive) | > 100 | > 100 µM (inactive) | > 100 µM (inactive) | > 100 µM (inactive) | > 100 µM (inactive) | 80.2 µM (inactive) | > 100 µM (inactive) | > 100 µM (inactive) | > 100 µM (inactive) | > 100 µM (inactive) | > 100 µM (inactive) | > 100 µM (inactive) | > 100 µM (inactive) |
| CC(=O)Nc1ccc(C(=O)NN2C(=O)C(Cl)C2c2cc(Br)cc(Br)c2O)cc1 (stereo unspecified) | > 100 µM (inactive) | > 100 µM (inactive) | > 100 µM (inactive) | > 100 | – | > 100 µM (inactive) | > 100 µM (inactive) | > 100 µM (inactive) | > 100 µM (inactive) | > 100 µM (inactive) | > 100 µM (inactive) | > 100 µM (inactive) | > 100 µM (inactive) | > 100 µM (inactive) | > 100 µM (inactive) | > 100 µM (inactive) |
| CSCC[C@@H](NC(=O)[C@H](CC(C)C)NC(=O)C(Cc1cnc[nH]1)NC(=O)CNC(=O)[C@@H](NC(=O)[C@H](C)NC(=O)[C@H](Cc1c[nH]c2ccccc12)NC(=O)[C@H](CCC(N)=O)NC(=O)[C@@H](N)CC(N)=O)C(C)C)C(N)=O (stereo partly specified) | > 100 µM (inactive) | > 100 µM (inactive) | > 100 µM (inactive) | > 100 | > 100 µM (inactive) | > 100 µM (inactive) | > 100 µM (inactive) | > 100 µM (inactive) | > 100 µM (inactive) | > 100 µM (inactive) | > 100 µM (inactive) | > 100 µM (inactive) | > 100 µM (inactive) | > 100 µM (inactive) | > 88.7 µM (inactive) | > 100 µM (inactive) |
| COC(=O)c1ccc(/N=N/N(C)CO)cc1 | > 100 µM (inactive) | > 100 µM (inactive) | > 100 µM (inactive) | > 100 | > 100 µM (inactive) | > 100 µM (inactive) | > 100 µM (inactive) | > 100 µM (inactive) | 91.4 µM (inactive) | 55.8 µM (inactive) | > 100 µM (inactive) | > 100 µM (inactive) | 40.5 µM (inactive) | > 100 µM (inactive) | > 100 µM (inactive) | > 100 µM (inactive) |
| N#CC(OC1OC(COC2OC(CO)C(O)C(O)C2O)C(O)C(O)C1O)c1ccccc1 (stereo unspecified) | > 225 µM (inactive) | > 225 µM (inactive) | > 225 µM (inactive) | > 225 | > 225 µM (inactive) | > 225 µM (inactive) | > 225 µM (inactive) | > 225 µM (inactive) | > 225 µM (inactive) | > 225 µM (inactive) | > 191 µM (inactive) | > 225 µM (inactive) | > 225 µM (inactive) | > 225 µM (inactive) | > 225 µM (inactive) | > 225 µM (inactive) |
| Cn1c(=O)nc2n(-c3ccc(Br)cc3)c3ccccc3nc-2c1=O | 3.81 µM (inactive) | 2 µM (inactive) | 4.11 µM (inactive) | 3.55 | 2.29 µM (inactive) | 2.54 µM (inactive) | 1.49 µM (inactive) | 11 µM (inactive) | 2.48 µM (inactive) | 3.51 µM (inactive) | 13.6 µM (inactive) | 3.16 µM (inactive) | 27.8 µM (inactive) | 2.06 µM (inactive) | 2.69 µM (inactive) | 1.94 µM (inactive) |
| CCOC(=O)C(N=C(c1ccccc1)c1ccccc1)N(C(=O)OC(C)(C)C)C(=O)OC(C)(C)C (stereo unspecified) | – | > 100 µM (inactive) | > 100 µM (inactive) | > 100 | > 100 µM (inactive) | > 100 µM (inactive) | > 100 µM (inactive) | > 100 µM (inactive) | > 100 µM (inactive) | > 100 µM (inactive) | > 100 µM (inactive) | 64.3 µM (inactive) | > 100 µM (inactive) | > 100 µM (inactive) | > 100 µM (inactive) | > 100 µM (inactive) |
| O=C1CSC(Cc2nc3ccccc3[nH]2)=N1 | 6.4 µM (inactive) | 13.1 µM (inactive) | 12.9 µM (inactive) | 17.5 | 24.7 µM (inactive) | 14.1 µM (inactive) | 7.03 µM (inactive) | 13.9 µM (inactive) | 14.3 µM (inactive) | 18.5 µM (inactive) | 28.8 µM (inactive) | 13.7 µM (inactive) | 36.1 µM (inactive) | 31.9 µM (inactive) | 19.7 µM (inactive) | 33.7 µM (inactive) |
